Experimental data published in patent US12522596B2, “Compounds as GLP-1R agonists” (Terns Pharmaceuticals, Inc., priority 2021, dated 2026).
“Also recorded” adds a separate entry of the source.

What was measured:
[1] = tested on: human hepatocytes; experiment: Metabolic stability in human hepatocytes; type: in vitro ADME; conditions: human
Summary of the method: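 Compounds at 1 μM (0.1% DMSO) were incubated with 1×10^6 cells/mL cryopreserved rat or human hepatocytes in DMEM at 37°C for 0–240 min. Parent remaining was measured by LC-MS/MS; k from semi-log decline gave t1/2 and CLint, with CLhep predicted by the well-stirred model.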

[2] = Rat pharmacokinetics, intravenous dosing; type: in vivo, Sprague-Dawley rats; conditions: for AUC(0-t) / Cmax / clearance / half-life: male, Sprague-Dawley, rat plasma, 1 mg/kg IV (0.5 mg/mL)
Protocol: Intravenous dosing: Compounds were formulated at 0.5 mg/mL in a solution comprising 5% polyethylene glycol 400 and 95% (12% (w/v) sulfobutyl-β-cyclodextrin in water) (v/v). Formulated compounds were sterile filtered through a 0.22 micron filter before dosing. Compounds were administered to male, 7-11-week-old Sprague-Dawley rats by jugular vein cannula infusion over 30 minutes at a dose of 1 mg/kg.
Sample collection: Blood collections of about 0.2 mL per time point were performed from jugular vein or other suitable site of each animal, into pre-chilled commercial EDTA-K2 tubes and placed on wet ice until centrifugation. Blood samples were processed for plasma by centrifugation at approximately 4° C., 3,200 g for 10 min. Plasma was collected and transferred into pre-labeled 96 well plate or polypropylene tubes, quick frozen over dry ice and kept at −60° C. or lower until LC-MS/MS analysis.
Data analysis: Plasma concentration versus time data was plotted in graph and analyzed by non-compartmental approaches using the Phoenix WinNonlin 6.3 software program. Related PK parameters were calculated according to dosing route, e.g., CL, Vdss and C0 for intravenous administration, Cmax, Tmax or % F for extravascular administration, and T1/2, AUC(0-t), AUC(0-inf), MRT(0-t), MRT(0-inf) for all routes.

[3] = tested on: C57BL/6 mice expressing human GLP-1R (hGLP-1R); experiment: Intraperitoneal glucose tolerance test (IPGTT) in hGLP-1R mice; type: in vivo, mouse; conditions: IP glucose bolus, relative to vehicle control
Protocol: The ability of compounds disclosed herein to modify the glucose tolerance of C57BL/6 mice expressing human GLP-1R (hGLP-1R), was evaluated.
The group design used in this study is described in Table 8.
Acclimation and grouping: Following a one-week washout period after in-life completion of the food intake study, mice were utilized to conduct an intraperitoneal Glucose Tolerance Test (IPGTT); mice remained in their treatment groups from study the food intake study. Baseline fasting glucose levels were used to balance treatment groups (final n=7 per treatment group); outlier mice (n=3), based on abnormal fasting blood glucose and body weight, were used for PK assessment.
Intraperitoneal Glucose Tolerance Test (IPGTT): The mice were placed clean cages with sawdust bedding and fasted overnight. Basal fasting glucose was measured by tail vein nick before dosing in the morning, 3 mice per group of abnormal fasting blood glucose and body weight were used for PK assessment. […] Blood glucose levels were measured at 0 (pre-dose), 15-, 30-, 60-, and 120-min post glucose dosing. […]
Data Processing and analysis: Manual data were transferred into an excel spreadsheet. All values are expressed as mean±S.E.M. The significances of the differences among groups and within groups were evaluated by one-way or two-way ANOVA using Graph Pad statistic software. […]

[4] = rat, intravenous administration

| Compound | CLint relative to reference [1] | half-life relative to standard [1] | AUC(0-t) [2] [ng·h/mL] | Cmax [2] [ng/mL] | clearance [2] [mL/min/kg] | half-life [2] [h] | glucose tolerance [3] | longer t1/2 as compared with Reference Compound A [2, 4] [fold] | lower clearance as compared with Reference Compound A [2, 4] [%] |
| --- | --- | --- | --- | --- | --- | --- | --- | --- | --- |
| N#Cc1ccc(COc2cccc(N3CCN(Cc4nc5ccc(C(=O)O)cc5n4Cc4cncs4)CC3)n2)c(F)c1 [Compound 30] | no significant difference | no significant difference |  |  |  |  |  |  |  |
| N#Cc1ccc(COc2cccc(C3CCN(Cc4nc5ccc(C(=O)O)cc5n4C[C@@H]4CCO4)CC3)n2)c(F)c1 [Reference Compound A, reference compound] |  |  | 325 ± 16.8 | 486 ± 37.9 | 51.2 ± 2.59 | 0.613 ± 0.344 |  |  |  |
| N#Cc1ccc(COc2cccc(C3CCN(Cc4nc5ccc(C(=O)O)cc5n4Cc4cncs4)CC3)n2)c(F)c1 [Compound 2] |  |  | 427 ± 27.7 | 596 ± 42.3 | 38.8 ± 2.55 | 1.57 ± 0.583 | significantly enhanced the glucose tolerance; also recorded: improved | ~2 | 30 |
